This is an account of results in patent US5922891A, “2-substituted 1,8-dihydroxy-9(10H)-anthracenone pharmaceuticals” (priority 1997, dated 1999).

The structures appear in SMILES notation.

Data set [1] deals with HaCaT cells. In words: Antiproliferative activity against HaCaT cells (human keratinocyte cell line). Type of data set: cell-based. To be noted: 48 h, read-out: AA IC50 (antiproliferative activity). The procedure: HaCaT cells were grown in Dulbecco's modified Eagle's medium (DMEM, No. 041-11954A, Gibco) supplemented with 10% fetal calf serum, penicillin (100 U/mL), and streptomycin (100 μg/mL) in a humidified incubator containing 8% CO2 at 37° C. Cells (2.5·10^4 /1.1 ml per well) were seeded on 24-well multidishes and grown in DMEM. After 24 hours of growth, the medium was replaced with fresh medium and a test compound (0.1-5 μM) was added from freshly made stock solutions, which were prepared in DMSO and diluted with DMEM. The final concentration of DMSO in the culture medium was 0.2%. Controls were performed using DMSO or medium alone. Forty-eight hours after addition of a test compound to the culture, the medium was removed and each well was rinsed with phosphate-buffered saline (PBS, 100 μL). The cells were then incubated with sterile 0.5% trypsin, 0.2% EDTA in PBS for 20 minutes at 37° C. The detached cells from each well were suspended in DMEM and dispersed as single cells by gentle pipetting through an Eppendorf pipette. Cell growth was determined directly by counting the keratinocytes on a Neubauer counting chamber using phase contrast microscopy. Inhibition of cell proliferation was calculated by a comparison of the mean value of the test compound (N=3) with the control (N=6-8) activity: (1-test compound/control)×100.

The nature of data set [2]: Deoxyribose degradation as a measure of hydroxyl radical formation. The class given is biochemical. The following applies: 75 μM test compound; controls < 0.1. How it is done: ^c Deoxyribose degradation as a measure of hydroxyl radical formation
Indicated values are μmoles of malondialdehyde per mmole of deoxyribos
released by 75 μM test compound (controls < 0.1).
Degradation of deoxyribose provides a measurement of the amount of hydroxyl radical formation caused by the test compounds. The assay used to determine degradation of 2-deoxy-D-ribose followed generally the procedures of Gutteridge, J. M. C., Biochem. J., 224: 761-767 (1984) and Laughton, et al., Biochem. Pharmacol., 38: 2859-2865 (1989). The following reagents were added to glass tubes in the order and at the final concentrations listed. 0.3 mL kH2 PO4 --KOH buffer, pH 7.4 (30 mM), 0.2 ml double distilled H2 O, 0.2 ml 2-deoxy-D-ribose (2 mM), 0.2 ml FeCl3.6H2 O (0.1 mM), 0.1 ml 2-substituted anthracenone ([…]). Stock solutions of each of the 2-substituted anthracenone compounds were made up fresh before use. Appropriate blanks and controls using an acetronitrile vehicle were performed.
Final reaction volumes were standardized to 1.0 ml. The reaction mixtures were incubated for 2 hours at 37° C. in a shaking water bath at 50 rpm. 1 ml of 2.8% (w/v) trichloracetic acid and 1 ml of 1% (w/v in 0.05 N NaOH) 2-thiobarbituric acid (TBA) were added, and the samples were heated at 100° C. for 15 minutes and then cooled in an ice bath (5 minutes). 2 ml of each reaction mixture was treated with 0.05 ml of 36% (w/v) HCl and 2 of 1-butanol, followed by vigorous shaking with a vortex mixer (Heidolph) for 15 seconds. The organic layer was separated by centrifugation at 3000 rpm (15 minutes) and absorbance at 532 nm was measured against butanol. Calibration was performed using a malondialdehyde (MDA) standard prepared by hydrolysis of 1,1,3,3-tetraethoxypropane (Gutteridge, J. M. C., Anal. Biochem., 69: 518-526 (1975). TBA reactive material was expressed in terms of μmol MDA per μmol deoxyribose. The results of the assay are provided in Table I.

Data set [3] deals with T1, 5-LO in bovine PMNL (Bos taurus, UniProt F1MQ78).
T1 construct: The purified PMNLs were suspended at a concentration of; endogenous in cells; host or cells: polymorphonuclear leukocytes isolated from bovine blood
T1 sequence (F1MQ78 1-674): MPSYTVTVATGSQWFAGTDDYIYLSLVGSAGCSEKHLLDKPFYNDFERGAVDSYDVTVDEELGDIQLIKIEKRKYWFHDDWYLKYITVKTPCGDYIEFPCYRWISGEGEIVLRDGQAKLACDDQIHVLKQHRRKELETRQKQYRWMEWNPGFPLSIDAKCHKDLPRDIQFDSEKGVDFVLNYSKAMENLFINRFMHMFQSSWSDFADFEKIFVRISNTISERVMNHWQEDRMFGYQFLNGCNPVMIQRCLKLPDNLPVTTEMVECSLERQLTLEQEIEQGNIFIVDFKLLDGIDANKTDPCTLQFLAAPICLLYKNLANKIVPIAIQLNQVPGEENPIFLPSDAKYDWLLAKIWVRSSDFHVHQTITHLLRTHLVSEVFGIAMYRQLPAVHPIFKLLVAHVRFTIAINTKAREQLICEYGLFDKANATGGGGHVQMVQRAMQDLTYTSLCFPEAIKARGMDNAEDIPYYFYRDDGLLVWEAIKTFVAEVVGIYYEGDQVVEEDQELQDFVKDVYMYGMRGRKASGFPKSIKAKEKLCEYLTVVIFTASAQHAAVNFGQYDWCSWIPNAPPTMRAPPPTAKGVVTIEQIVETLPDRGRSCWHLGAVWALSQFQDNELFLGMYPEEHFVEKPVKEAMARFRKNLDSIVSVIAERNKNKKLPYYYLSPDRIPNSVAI
Put plainly: Inhibition of 5-lipoxygenase (5-HETE and LTB4 biosynthesis) in Ca-ionophore-stimulated bovine PMNL. The following applies: N = 3 or more. The class given is cell-based. How it is done:
Briefly, PMNLs were prepared from sodium EDTA-anticoagulated bovine blood, essentially as described by Walstra, P. et al., (Biochem. Biophys. Acta, 795:499-503 (1984)). Contaminating platelets were removed by repeated centrifugations at 100 g for 20 minutes. […] Cell counts were conducted with a Sysmex micro cell counter CC-130. Preincubation was performed with 2.4 ml of the suspension and 10 μl of a DMSO stock solution of test compounds at the desired concentrations in phosphate buffered saline (PBS) or vehicle control (DMSO at final concentration of 0.4%) for 15 minutes at 37° C. in a shaking water bath at 50 rpm. […] The incubation mixture was held on ice bath for 20 minutes and then centrifuged at 4000 g for 5 minutes at 0° C. The supernatant was diluted with 5 ml of water and passed through a prewashed (10 ml of methanol and 5 ml of water, sequentially) octadecylsilane reversed phase cartridge (Baker). The eicosanoids were eluted with 3 ml of methanol, diluted with 3 ml of water and subjected to reversed phase HPLC analysis using a 250×4 mm column packed with Nucleosil C18 (7 μm particles; Bischoff, Leonberg, Germany). The isocratic elution conditions of LTB4 were tetrahydrofuran (THF)/methanol/water/acetic acid (25+30+45+0.1), adjusted to pH 5.5 with concentrated NH3, at a flow rate of 0.9 ml/min (Kontron 420 pump), monitored at 280 nm with a Kontron 735 LC UV detector. 5-HETE was monitored at 232 nm using methanol/water/acetic acid (77+23+0.1), pH 5.5 and a flow rate 1.0 ml/min. Data were recorded on a MacLab data acquisition system (WissTech, Germany) and analysis was performed using the application Peaks on an Apple Macintosh Quadra 700 computer. Integrated areas of the peaks were compared to a PGB2 internal standard and to external standards of authentic samples. Molar absorption coefficients of Samuelsson et al., Borgeat, P. and B. Samuelsson, (Proc. Natl. Acad. Sci. USA, 76:2148-2152 (1979)), were used for making calculations. Inhibition was calculated by a comparison of the mean value of test compound (n=3) with control (n=6-8) activity: (1-test compound/control)×100.
See Walstra, P. et al., Biochem Biophys. Acta, 795:499-503 (1984); and Dannhardt et al. J. Pharm. Pharmacol., 44:419-424 (1992). […] (Schroder, J. M., J. Invest. Dermatol., 87:624-629 (1986); Tanzer, et al., Arch. Pharm. (Weinheim), 324:841-846 (1991)).

With `O=C1c2c(O)cccc2Cc2ccc(C(Cc3ccccc3)C(=O)O)c(O)c21` (centres unmarked) [IXA, 2-(9,10-Dihydro-1,8-dihydroxy-9-oxo-2-anthracene)-3-phenylpropionic acid], the half-maximal inhibitory concentration (IC50) in data set [1] is above 5000 nM. Moreover, the “DD (deoxyribose degradation, malondialdehyde released)” value (from here on “DD”) in data set [2] is 3.25 ± 0.45 μmol of MDA/mmol.
For `O=C(CCCc1ccc2c(c1O)C(=O)c1c(O)cccc1C2)NO` [IIIC, N-Hydroxy-4-(9,10-dihydro-1,8-dihydroxy-9-oxo-2-anthracene)butanamide], the IC50 in data set [1] is 1500 nM. Besides, in data set [2], the “DD” value was 1.46 ± 0.02 μmol of MDA/mmol.
For `COC(=O)C(C)c1ccc2c(c1O)C(=O)c1c(O)cccc1C2` (centres unmarked) [VIIB, Methyl 2-(9,10-Dihydro-1,8-dihydroxy-9-oxo-2-anthracene) propionate], in data set [3], the half-inhibitory concentration (IC50) was above 30000 nM.
For `COC(=O)c1ccc(Cc2ccc3c(c2O)C(=O)c2c(O)cccc2C3)cc1` [XIB, Methyl 4-[(9,10-Dihydro-1,8-dihydroxy-9-oxo-2-anthracene)methyl]benzoate, reference compound], in data set [3], the half-maximal inhibitory concentration (IC50) was above 30000 nM.
As to `CC(C)C(C(=O)NO)c1ccc2c(c1O)C(=O)c1c(O)cccc1C2` (centres unmarked) [VIIIC, N-Hydroxy-2-(9,10-dihydro-1,8-dihydroxy-9-oxo-2-anthracene)-3-methylbutanamide], the half-inhibitory concentration (IC50) in data set [1] is 1500 nM. Also, in data set [2], the “DD” value is 1.66 ± 0.08 μmol of MDA/mmol.
As for `O=C(NO)c1ccc(Cc2ccc3c(c2O)C(=O)c2c(O)cccc2C3)cc1` [XIC, N-Hydroxy-4-[(9,10-dihydro-1,8-dihydroxy-9-oxo-2-anthracene)methyl]benzamide], the IC50 in data set [1] was 1400 nM.
`COC(=O)CCc1ccc2c(c1O)C(=O)c1c(O)cccc1C2` [IIB, Methyl 3-(9,10-Dihydro-1,8-dihydroxy-9-oxo-2-anthracene) propionate] gave a half-maximal inhibitory concentration (IC50) in data set [3] above 30000 nM.
With `O=C(O)Cc1ccc2c(c1O)C(=O)c1c(O)cccc1C2` [IA, 9,10-Dihydro-1,8-dihydroxy-9-oxo-2-anthracenacetic acid, reference compound], the half-inhibitory concentration (IC50) in data set [1] is above 5000 nM. Besides, the “DD” value in data set [2] is 3.74 ± 0.23 μmol of MDA/mmol.
As for `O=C(O)c1ccc(C(=O)c2ccc3c(c2O)C(=O)c2c(O)cccc2C3)cc1` [XIIA, 4-[(9,10-Dihydro-1,8-dihydroxy-9-oxo-2-anthracene)oxomethyl]benzoic acid], the IC50 in data set [1] was above 5000 nM. Further, the “DD” value in data set [2] is given as 1.80 ± 0.14 μmol of MDA/mmol.
In the same order, the values of `O=C(O)CCc1ccc2c(c1O)C(=O)c1c(O)cccc1C2` [IIA, 3-(9,10-Dihydro-1,8-dihydroxy-9-oxo-2-anthracene) propionic acid, reference compound] are above 5000 nM and 2.67 ± 0.23 μmol of MDA/mmol.
Consider `CN(O)C(=O)C(Cc1ccccc1)c1ccc2c(c1O)C(=O)c1c(O)cccc1C2` (centres unmarked) [IXD, N-Hydroxy-N-methyl-2-(9,10-dihydro-1,8-dihydroxy-9-oxo-2-anthracene)-3-phenylpropionamide], for which, in data set [1], the IC50 was 900 nM. The “DD” value in data set [2] is listed as 1.68 ± 0.13 μmol of MDA/mmol.
For `O=C(O)CCCc1ccc2c(c1O)C(=O)c1c(O)cccc1C2` [IIIA, 4-(9,10-Dihydro-1,8-dihydroxy-9-oxo-2-anthracene) butanoic acid, reference compound], in data set [1], the IC50 is above 5000 nM. Also, the “DD” value in data set [2] was 2.61 ± 0.38 μmol of MDA/mmol.
In the same order, the values of `O=C(CCc1ccc2c(c1O)C(=O)c1c(O)cccc1C2)NO` [IIC, N-Hydroxy-3-(9,10-dihydro-1,8-dihydroxy-9-oxo-2-anthracene)propionamide] are 1300 nM and 1.67 ± 0.31 μmol of MDA/mmol.
In the case of `CN(O)C(=O)c1ccc(Cc2ccc3c(c2O)C(=O)c2c(O)cccc2C3)cc1` [XID, N-Hydroxy-N-methyl-4-[(9,10-dihydro-1,8-dihydroxy-9-oxo-2-anthracene)methyl]benzamide], in data set [2], the “DD” value is recorded as 0.97 ± 0.03 μmol of MDA/mmol.
In the case of `O=C(Cc1ccc2c(c1O)C(=O)c1c(O)cccc1C2)NO` [IC, N-Hydroxy-(9,10-dihydro-1,8-dihydroxy-9-oxo-2-anthracene)acetamide], the “DD” value in data set [2] was 1.89 ± 0.14 μmol of MDA/mmol.
`O=C1c2c(O)cccc2Cc2ccc(C(Cc3ccccc3)C(=O)NO)c(O)c21` (centres unmarked) [IXC, N-Hydroxy-2-(9,10-dihydro-1,8-dihydroxy-9-oxo-2-anthracene)-3-phenylpropionamide]: in data set [1], the 50% inhibitory concentration (IC50) was determined as 1500 nM.
Regarding `CC(C(=O)O)c1ccc2c(c1O)C(=O)c1c(O)cccc1C2` (centres unmarked) [VIIA, 2-(9,10-Dihydro-1,8-dihydroxy-9-oxo-2-anthracene) propionic acid], the half-inhibitory concentration (IC50) in data set [1] is above 5000 nM.
